Values quoted from earlier work in patent publication EP1608381B1, “THERAPEUTIC AND CONSMETIC APPLICATION FOR A COMPOSITION CONTAINING LYCOPENE” (Touche, Marie-José, priority 2002, dated 2003).

Legend:
[1] = relative to Bétacarotène

Structure (SMILES): CCCCOC(=O)c1ccc(N)cc1 [Butoforme, p-aminobenzoate de n- butyle]
- solubilité dans le chlorure de méthylène (chlorure de méthylène): facilement soluble
- solubilité dans l'eau froide (eau froide): pratiquement insoluble
- soluble dans p. d'alcool à 50° (parts of solvent, alcool à 50°): 10 p.
- soluble dans p. d'huile d'olive (parts of solvent, huile d'olive): 12,5 p.
- soluble dans p de vaseline (parts of solvent, vaseline): 200 p

Structure (SMILES): C=CCc1ccc(O)c(OC)c1 [EUGENOL, eugénol]
- solubilité dans l'eau (eau): insoluble
- solubilité dans l'éthanol (éthanol): soluble

Structure (SMILES): CC(C)=CCC/C(C)=C/C=C/C(C)=C/C=C/C(C)=C/C=C/C=C(C)/C=C/C=C(C)/C=C/C=C(\C)CCC=C(C)C [lycopène, psi-psi-carotène]
- effet sur les radicaux libres, fois plus que le Bétacarotène [1]: 2 fois
